From PMC6973020, “Quinoline‐Conjugated Ruthenacarboranes: Toward Hybrid Drugs with a Dual Mode of Action” (Chemmedchem, 2019)

How the values were obtained:
U251 human glioma = assay: MTT cell viability assay, U251; format: cell-based; details: 72 h
From the text: (§1) Thus, care must be taken when comparing their biological activities with those of our previous studies, even with the same cell line, because the covalent vs. non‐covalent combination of drugs might imply different mechanisms of action in the cell.44 Here, we studied the in vitro activity of ruthenacarborane 3, i. e. free acid, and its 8‐hydroxyquinolyl (4) and 4‐{(7‐chloroquinolin‐4‐yl)oxy}butanol‐1‐yl (5) esters, against a panel of cancer cell lines (B16 mouse melanoma, A375 human skin melanoma, MCF‐7 human breast adenocarcinoma, LN229 human glioblastoma, U251 human glioma). Human fibroblast cell line MRC‐5, murine microglial cell line BV‐2 as well as peritoneal exudate cells (Mph), were chosen as models for non‐malignant cells. […] On the other side, we wanted to assess the reproducibility of the viability data, under either controlled (with BSA) or uncontrolled (without BSA) conditions, in two sets of independent assays. […] Cells were exposed to 3–5 for 72 h, after which cell viability was determined via 3‐(4,5‐dimethylthiazol‐2‐yl)‐2,5‐diphenyltetrazolium bromide (MTT) and crystal violet (CV) assays, in parallel (Table 2). Cisplatin was also tested as reference.
(§2) Preparation of drug solutions. […] Stock solution of cisplatin was prepared in DMF (10 mM) immediately before use. A stock solution of BSA in PBS was prepared at 1.28 mM concentration, and stored at 4 °C in the dark. […] Alternatively, 3 or 4 (DMSO stock solution) were added to the BSA solution in PBS, always with a 10 : 1 molar ratio of BSA to ruthenacarborane. The BSA−ruthenacarborane solutions were incubated 0.5–1 h at room temperature, then diluted with cell culture medium to the desired final concentrations. Final concentrations of 3 and 4 were the same as for the BSA‐free formulation. Final DMSO was 0.02–0.5 vol %.
(§3) Colorimetric assays for cellular viability. […] For counting the number of attached (viable) cells, cells were fixed with 4 % (w/v) paraformaldehyde for 10 min at room temperature, and subsequently stained for 15 min with […] crystal violet (CV) solution. Cells were then washed with tap water, dried in air, and the CV dye was dissolved in 33 % (w/v) acetic acid solution. For the detection of mitochondrial respiration, cells were cultivated in MTT staining solution (0.5 mg mL^−1) for approximately 1 h. The dye was then discarded, and the formed formazan (purple) was dissolved in DMSO. The absorbance was measured with an automated microplate reader at λmax 540 nm, with the reference λmax 670 nm. Untreated cells or cells treated only with BSA (control) were also measured, as reference for BSA‐free and BSA‐containing drug formulations, respectively. […] Cell viability is expressed as percentage (%) relative to control (untreated cultures).58 Experiments were run in three independent replicates. […]

[1] = tested on: murine microglial cell line BV‐2; assay: MTT cell viability assay, BV‐2; format: cell-based, mouse; details: 72 h
From the text: as §1
Preparation of drug solutions. […] Stock solution of cisplatin was prepared in DMF (10 mM) immediately before use. A stock solution of BSA in PBS was prepared at 1.28 mM concentration, and stored at 4 °C in the dark. […] Alternatively, 3 or 4 (DMSO stock solution) were added to the BSA solution in PBS, always with a 10 : 1 molar ratio of BSA to ruthenacarborane. […]
Colorimetric assays for cellular viability. […] The absorbance was measured with an automated microplate reader at λmax 540 nm, with the reference λmax 670 nm. Untreated cells or cells treated only with BSA (control) were also measured, as reference for BSA‐free and BSA‐containing drug formulations, respectively. […] Cell viability is expressed as percentage (%) relative to control (untreated cultures).58 Experiments were run in three independent replicates. […]

MCF‐7 cells [2] = assay: CFSE staining, flow cytometry, MCF‐7; format: cell-based, human; details: MCF‐7, 20 μM, 72 h
Method: Flow cytometry. For gaining better insights into the mechanisms of action of the ruthenium complexes, MCF‐7 and LN229 cells incubated with an IC50 dose of 3 or 4, were analyzed via flow cytometry. Several staining protocols were carried out in parallel, in independent experiments: i) AnnV/PI for the detection of apoptotic cell death, ii) AO for the detection of acidic vacuoles, iii) ApoStat for checking caspase activation, iv) CFSE for detecting interference with cellular proliferation, and v) DAPI for the detection of morphological signs of apoptosis. Untreated cells or cells treated only with BSA (control) were also measured, as reference for BSA‐free and BSA‐containing drug formulations, respectively. […] Channels FL1 (green emission), FL2 (orange emission) and/or FL3 (dark red emission) were used for fluorescence detection, according to the specific staining agent. Sideward Scatter (SSC) for MCF‐7 cells treated with 4 or BSA−4 was also analyzed, with respect to the control, for detection of shifts of cell granularity. […]
Staining Protocols for Flow Cytometric Analysis. […] Finally, cells were washed in PBS, resuspended in PBS (or AnnV‐binding buffer for AnnV/PI), and analysed. […] Cells were then washed, trypsinised, dissolved in PBS and analysed by CyFlow® Space Partec using the PartecFloMax® software (Partec GmbH, Münster, Germany). […]

A375 human skin melanoma = assay: MTT cell viability assay, A375; format: cell-based; details: 72 h
From the text: as §1, §2, §3

MCF‐7 cells [3] = assay: Wound healing assay, MCF‐7; format: cell-based, human; details: MCF‐7, 20 μM, 72 h

Substance	IC50 (U251 human glioma)	IC50 [1]	cellular proliferation (CFSE staining) (MCF‐7 cells [2])	IC50 (A375 human skin melanoma)	cell migration (wound healing assay, in words) (MCF‐7 cells [3])
closo‐ [Compound 3, closo‐ [3‐(η^6‐p‐Cymene)‐1‐(CH2COOH)‐3,1,2‐RuC2B9H10]]	> 100 µM	64.7 ± 0.7 µM	inhibition of cellular proliferation	9.7 ± 1.1 µM	inhibited cell migration
closo ‐[3‐(η^6‐p‐Cymene)‐1‐(quinolin‐8‐yl‐acetate)‐3,1,2‐RuC2B9H10] [Compound 4]	46.2 ± 1.9 µM	8.7 ± 0.1 µM	inhibition of cellular proliferation	11.9 ± 1.2 µM	inhibited cell migration
